Test results: paper PMC10937238 (Saudi Pharmaceutical Journal : SPJ, 2024)

Key:
[1] = target: T1, MERS-CoV PLpro (Human betacoronavirus 2c EMC/2012, UniProt K0BWD0); type: binding
[2] = target: T1, MERS-CoV PLpro; assay: biochemical; type: binding; details: read-out: SA (111.5 μM)
[3] = target: T1, MERS-CoV PLpro; assay: biochemical

Row | SMILES | Indomethacin (279.5 μM) [1] | ΔTm at 111.5 µM [2] | IC50 [3]
1 | COc1ccc2c(c1)c(CC(=O)O)c(C)n2C(=O)c1ccc(Cl)cc1 [Indomethacin] | 1.44 °C |  | 
2 | COc1cc(/C=C/C(=O)O)cc(OC)c1O [sinapic acid] |  | 18.4 °C | 68.6 µM
